For series [1] the following is noted: [^18F]-FDG study; cited from earlier work.
The conditions of series [2]: mice, other studies; cited from earlier work.
Series [3] in a line: Dynamic PET of ^51Mn^2+ rapid IV bolus under isoflurane. Type of series: in vivo, ICR mice. As for the experimental part:
(§1) All animal studies were conducted under a protocol approved by the University of Wisconsin Institutional Animal Care and Use Committee. Non-fasted healthy ICR mice (Envigo, Indianapolis, Ind.) were divided into two groups. Mice in the first group (n=2) were anaesthetized by isoflurane (4% induction, 1% maintenance), tail-vein catheters were affixed, and mice were placed on the microPET/CT bed in a prone position (Inveon, Siemens Preclinical Solutions, Knoxville, Tenn.). Dynamic PET acquisition was started and ^51Mn^2+ was administered in a rapid bolus (3.3 MBq, 200 μl, 10% 0.01 M NaOAc/90% PBS) through the tail-vein catheter. Sixty minutes of dynamic PET data were acquired following ^51Mn^2+ administration. Due to the impact of volatile anesthetics on voltage-dependent calcium channel (VDCC) activation, the second group (n=3) received an intravenous (I.V.) bolus of ^51Mn^2+ (1.6 MBq, 200 μL, 10% 0.01 M NaOAc/90% PBS) while awake. 60 minutes post-injection mice were anaesthetized by isoflurane and a 10 minute static PET scan acquired. Following imaging, mice were immediately sacrificed by CO2 asphyxiation, and organs were extracted. Ex vivo biodistribution measurements were performed by gamma counting (Wizard 2480, PerkinElmer, Waltham, Mass.).
Dynamic PET data were binned into […] (12×5 s, 6×10 s, 6×30 s, 6×150 s, 6×300 s) and frames were reconstructed using non-scatter-corrected 3D ordered-subset expectation maximization followed by maximum a posteriori reconstruction (OSEM3D/MAP). Static PET data were reconstructed into a single frame by OSEM3D/MAP.

The nature of series [4]: OLINDA dosimetry calculations for Mn-51 and daughter Cr-51. Details: species or system human. The conditions noted are these: OLINDA input. As for the experimental part: Due to the rapid blood clearance of Mn^2+, OLINDA (Organ Level INternal Dose Assessment) dosimetry calculations were performed assuming instant compartment localization with organ activity fractions equal to those measured by ex vivo biodistribution herein. Based on the previously measured lengthy organ residence times of Mn^2+, it was also assumed that the effective organ clearance half-life (Ter) was equal to the radioactive half-life of Mn-51 (t1/2: 45.6 min). It was also assumed that Mn-51 injections were 100% radionuclidically pure. In regards to the daughter isotope, Cr-51 (t1/2: 27.7 d), it was assumed that the activity remained in same organ compartments as the parent Mn-51 biodistribution without biological clearance. Standard radiation weighting factors were used (γ=1, β=1). Based on these assumptions, effective dose (ED) and effective dose equivalent (EDE) (units of mSv/MBq) were calculated for a standard adult male and female.

The nature of series [5]: Static PET of ^51Mn^2+ injected in awake mice. The settings on record: I.V. bolus non-anaesthetized, n=3, PET 60 minutes post-injection. Type of series: in vivo, ICR mice. On the procedure:
as §1, with “Mass.). […]” for “Mass.).”

Series [6] in a line: Ex vivo ^51Mn biodistribution by gamma counting. It counts as in vivo, ICR mice. The settings on record: awake I.V. bolus, gamma counting after 1 h PET. On the procedure: as §1

`OC[C@H]1OC(O)[C@H]([18F])[C@@H](O)[C@@H]1O` (some centres unmarked) [[^18F]-FDG]: in series [1], the “average dose for a study” value is reported as 14.1 mSv.
As to `[63Zn+2]` [^63Zn^2+], the pancreatic uptake entry in series [2] was “significant”.
Take ^51MnCl2 [Mn-51]: the “kidney uptake, anaesthetized dynamic PET subjects” value in series [3] (I.V. bolus under isoflurane, n=2) is 13.7±2.6 SUV. The “duration of initial distribution” value in series [3] (rapid IV bolus, dynamic PET) is less than 1 min. Besides, in series [3] (rapid IV bolus, heart TAC 0.375 to 3.25 minutes post-injection), the “heart blood-pool clearance half-life” value is 7.7 ± 0.7 s. In addition, in series [4] (Total Body), the “Number of disintigrations, Total Body” value was 8.70E−01 MBq-h/MBq. For the same compound, the “Number of disintigrations, Adrenals” value in series [4] (source organ Adrenals) was 0.00E+00 MBq-h/MBq. Moreover, in series [4] (source organ Brain), the “Number of disintigrations, Brain” value is given as 4.43E−03 MBq-h/MBq. Further, the “Number of disintigrations, Breasts” value in series [4] (source organ Breasts) is 0.00E+00 MBq-h/MBq. The “Number of disintigrations, Cortical Bone” value in series [4] (source organ Cortical Bone) is listed as 8.40E−04 MBq-h/MBq. Further, the “Number of disintigrations, Gallbladder Contents” value in series [4] (source organ Gallbladder Contents) was 0.00E+00 MBq-h/MBq. The “Number of disintigrations, Heart Contents” value in series [4] (source organ Heart Contents) was 0.00E+00 MBq-h/MBq. For the same compound, the “Number of disintigrations, Heart Wall” value in series [4] (source organ Heart Wall) is recorded as 2.37E−02 MBq-h/MBq. Moreover, the “Number of disintigrations, Kidneys” value in series [4] (source organ Kidneys) is 6.91E−02 MBq-h/MBq. The “Number of disintigrations, LLI” value in series [4] (source organ LLI) was 0.00E+00 MBq-h/MBq. Also, the “Number of disintigrations, Liver” value in series [4] (source organ Liver) was 6.30E−02 MBq-h/MBq. In series [4] (source organ Lungs), the “Number of disintigrations, Lungs” value was 1.68E−02 MBq-h/MBq. Moreover, the “Number of disintigrations, Muscle” value in series [4] (source organ Muscle) is 2.18E−03 MBq-h/MBq. Besides, in series [4] (source organ Ovaries), the “Number of disintigrations, Ovaries” value is 0.00E+00 MBq-h/MBq. In addition, the “Number of disintigrations, Pancreas” value in series [4] (source organ Pancreas) is 4.11E−02 MBq-h/MBq. Moreover, the “Number of disintigrations, Red Marrow” value in series [4] (source organ Red Marrow) is given as 0.00E+00 MBq-h/MBq. For the same compound, the “Number of disintigrations, Small Intestine” value in series [4] (source organ Small Intestine) is listed as 0.00E+00 MBq-h/MBq. In addition, the “Number of disintigrations, Spleen” value in series [4] (source organ Spleen) is on record as 9.16E−03 MBq-h/MBq. The “Number of disintigrations, Stomach” value in series [4] (source organ Stomach) is listed as 0.00E+00 MBq-h/MBq. In addition, the “Number of disintigrations, Testes” value in series [4] (source organ Testes) is 0.00E+00 MBq-h/MBq. Also, in series [4] (source organ Thymus), the “Number of disintigrations, Thymus” value was 0.00E+00 MBq-h/MBq. Also, in series [4] (source organ Thyroid), the “Number of disintigrations, Thyroid” value is recorded as 0.00E+00 MBq-h/MBq. In addition, the “Number of disintigrations, Trabecular Bone” value in series [4] (source organ Trabecular Bone) was 0.00E+00 MBq-h/MBq. In addition, the “Number of disintigrations, ULI” value in series [4] (source organ ULI) was 6.42E−03 MBq-h/MBq. Further, the “Number of disintigrations, Urinary Bladder Contents” value in series [4] (source organ Urinary Bladder Contents) is recorded as 0.00E+00 MBq-h/MBq. Besides, in series [4] (source organ Uterus/Uterine Wall), the “Number of disintigrations, Uterus/Uterine Wall” value is listed as 0.00E+00 MBq-h/MBq. In addition, in series [5], the “kidney uptake, static PET subjects” value turned out to be 7.7±1.1 SUV. In series [6], the “Mn-51 uptake in heart, ex vivo biodistribution” value turned out to be 5.6±1.8 SUV; the “Mn-51 uptake in kidneys, ex vivo biodistribution” value came to 9.2±0.7 SUV; the “Mn-51 uptake in pancreas, ex vivo biodistribution” value was found to be 7.0±1.3 SUV.

Values taken from patent publication US20180271470A1, “METHODS FOR QUANTIFYING PANCREATIC BETA CELL FUNCTION AND MASS PROPERTIES WITH RADIOMANGANESE POSITRON EMISSION TOMOGRAPHY” (Wisconsin Alumni Research Foundation, priority 2017, published 2018).
